Test results as given in patent US20220378764A1, “[…] OF A GENE ENCODING A CYTOCHROME P450 PROTEIN BY TREATING A HUMAN SUBJECT WITH A NITROXIDE” (priority 2021, published 2022).

Test system: fifteen genes associated with the cytochrome p450 family
Assay: Microarray gene expression in tissue of Tempol-fed mice, overall statement
Assay type: in vivo
Settings: 5 mg/g of food from 14 to 31 months after birth, cardiac tissue, vs control mice
Procedure: Mice receiving the same food without the addition of Tempol were used as a negative control. At the age of 31 months, the experimental animals were sacrificed and the hearts were surgically removed. The expression of a broad spectrum of genes in the cardiac tissue was assessed using chip-based microarray technology. Such chips are well known in the art and are widely used to assess gene expression.

CC1(C)CC(O)CC(C)(C)N1[O] [Tempol, 4-hydroxy-2,2,6,6-tetramethylpiperidine-1-oxyl]
Expression of fifteen genes associated with the cytochrome p450 family: statistically significant increase in expression
